According to patent US20250114486A1, “MARKED FATTY ACID DERIVATIVE, PRECURSOR COMPOUND THEREOF, AND USE THEREOF IN CONTRAST AGENT” (BEIJING NORMAL UNIVERSITY, priority 2022, published 2025):
Values joined by “and” are separate entries in the source; they are usually repeats but may differ in a detail not shown here. Equal entries are not always repeated.

Assays:
[1] = In vivo biodistribution of radioactive ^99mTc complexes in female SD rats; set-up: species or system female Sprague-Dawley (SD) rats; conditions: for Biodistribution: Large Intestine / Biodistribution: Small Intestine / Biodistribution: Stomach: unit % ID
Experimental: (§1) Female SD rats (180-220 g, n=3) were fasted for 12 h before the experiment, and the purified radioactive 99mTc complexes 78-81 were prepared into physiological saline (containing 10% ethanol) solutions of about 250-350 μCi/mL. 200 μL of the above solution was injected into the tail vein of female SD rats, and the rats were killed by cervical dislocation at five time points, 15, 30, 60, 120 and 240 min after the tail vein injection. The blood, brain, heart, liver, spleen, lung, kidney, muscle, bone, large intestine, small intestine, stomach and tail were collected, weighed and counted, and the count distribution of each tissue and organ was calculated (unit: % ID/g, the unit of large intestine, small intestine and stomach is % ID), and the data are the mean±standard deviation of three mice in each phase. At the same time, 200 μL of the above solution was diluted to 20 mL, which was used as the % ID without deducting the tail count.

fatty acid β-oxidation = experiment: TMZ (trimetazidine hydrochloride) blocking experiment, biodistribution in female SD rats; format: in vivo
Experimental: as §1
Trimetazidine hydrochloride (TMZ) is a widely used anti-anginal drug and an inhibitor of fatty acid β-oxidation. […] Therefore, in order to investigate the sensitivity of radioactive ^99mTc complex 80 to fatty acid β-oxidation, we first performed a TMZ blocking experiment from the perspective of biodistribution. Among them, SD rats killed 60 min after injection were divided into two groups: one group of fasting female SD rats were injected with saline (0.2 mL) solution containing TMZ (40 mg/kg) and our radiotracer ^99mTc complex 80 (TMZ administration group), and the other group of fasting female SD rats were injected with radioactive ^99mTc complex 80 only (control group). The absolute myocardial uptake of the control SD rats and the TMZ-administered SD rats was compared 60 min after the tail vein injection of our radiotracer 80 (corresponding to the time point of the peak absolute myocardial uptake). […] The effect of TMZ administration on the metabolic fate of the radioactive ^99mTc complex 80 will also be discussed in Example 4 below.

[2] = Metabolism study in female SD rats (modified Folch extraction, ^99mTc gamma counting); format: in vivo
Experimental: Female SD rats (180-220 g, fasted overnight) were injected with […] radioactive ^99mTc complex 80 (200-300 μCi, dissolved in 10% EtOH saline, 1000 μL) (n=3) through the tail vein. Heart, intestine and liver samples were collected at 60 min and 120 min after injection. Among them, the SD rats killed at 60 min post-injection were divided into two groups: one group of fasting female SD rats were injected with saline (0.2 mL) solution containing fatty acid β-oxidation inhibitor TMZ (40 mg/kg) and our radiotracer (TMZ-administratied group), and the other group of fasting female SD rats were injected with radioactive ^99mTc complex 80 only (control group). Heart, intestine or liver samples were homogenized in a mixture of CHCl3—CH3OH in a volume ratio of 2:1, then 40% urea and 5% sulfuric acid aqueous solution were added, and they were sonicated and centrifuged at 2000 rpm for 10 min (a modified Folch extraction method). The ^99mTc gamma counting were performed on the resulting aqueous phase, organic phase and residual tissue particle phase (n=3).
In addition, the residual tissue particles obtained from the heart samples were measured for radioactivity counts, then heated and dissolved in 1 mol/L NaOH solution at 90° C. for 1 h, cooled, and then treated with 50% trichloroacetic acid (TCA). After centrifugation at 2000 rpm for 10 min, the obtained supernatant and precipitate were ^99mTc gamma counting.

[3] = female SD rats, 60 min, blocked by trimetazidine hydrochloride (TMZ 40 mg/kg)
[4] = female SD rats, 60 min, blocked by trimetazidine hydrochloride (TMZ 40 mg/kg), unit % ID
[5] = heart in TMZ-administrated SD rats (TMZ 40 mg/kg), 60 min
[6] = heart in control SD rats, 60 min, percentage of total ^99mTc radioactivity counts
[7] = heart in control SD rats, 120 min
[8] = intestine in control SD rats, 60 min
[9] = intestine in control SD rats, 120 min
[10] = liver in control SD rats, 60 min
[11] = liver in control SD rats, 120 min

Biodistribution: Large Intestine ([1]; 120 min post-injection): 22.13 ± 2.94 % ID | Biodistribution: Small Intestine ([1]; 120 min post-injection): 5.02 ± 0.82 % ID | Biodistribution: Stomach ([1]; 120 min post-injection): 0.55 ± 0.08 % ID | Biodistribution: Blood ([1]; 240 min post-injection): 0.007 ± 0.001 ID %/g | Biodistribution: Bone ([1]; 240 min post-injection): 0.043 ± 0.003 ID %/g | Biodistribution: Brain ([1]; 240 min post-injection): 0.007 ± 0.002 ID %/g | Biodistribution: Heart ([1]; 240 min post-injection): 0.93 ± 0.09 ID %/g | Biodistribution: Kidney ([1]; 240 min post-injection): 0.49 ± 0.03 ID %/g | Biodistribution: Liver ([1]; 240 min post-injection): 0.17 ± 0.03 ID %/g | Biodistribution: Lungs ([1]; 240 min post-injection): 0.06 ± 0.01 ID %/g | Biodistribution: Muscle ([1]; 240 min post-injection): 0.22 ± 0.02 ID %/g | Biodistribution: Spleen ([1]; 240 min post-injection): 0.06 ± 0.01 ID %/g | Heart-to-Blood ratio ([1]; 240 min post-injection): 141.90±22.86 | Heart-to-Liver ratio ([1]; 240 min post-injection): 5.56±1.30 | Heart-to-Lungs ratio ([1]; 240 min post-injection): 15.00±3.18 | absolute myocardial uptake value ([1]; 240 min post-injection): 0.93±0.09 % ID/g | Biodistribution: Large Intestine ([1]; 240 min post-injection): 22.41 ± 1.13 % ID | Biodistribution: Small Intestine ([1]; 240 min post-injection): 7.36 ± 0.64 % ID | Biodistribution: Stomach ([1]; 240 min post-injection): 0.20 ± 0.02 % ID | absolute myocardial uptake peak value ([1]; peak at 60 min post-injection): 2.06±0.06 % ID/g | decrease of absolute myocardial uptake value ([1]; within 60-240 min post-injection): 54.9% | Biodistribution: Blood (fatty acid β-oxidation; [3]): 0.024 ± 0.003 ID %/g | Biodistribution: Bone (fatty acid β-oxidation; [3]): 0.07 ± 0.01 ID %/g | Biodistribution: Brain (fatty acid β-oxidation; [3]): 0.009 ± 0.005 ID %/g | Biodistribution: Heart (fatty acid β-oxidation; [3]): 1.01 ± 0.19 ID %/g | Biodistribution: Kidney (fatty acid β-oxidation; [3]): 0.97 ± 0.28 ID %/g | Biodistribution: Liver (fatty acid β-oxidation; [3]): 0.51 ± 0.16 ID %/g | Biodistribution: Lungs (fatty acid β-oxidation; [3]): 0.16 ± 0.02 ID %/g | Biodistribution: Muscle (fatty acid β-oxidation; [3]): 0.31 ± 0.06 ID %/g | Biodistribution: Spleen (fatty acid β-oxidation; [3]): 0.10 ± 0.04 ID %/g | Heart-to-Blood ratio (fatty acid β-oxidation; [3]): 41.25 ± 3.12 | Heart-to-Liver ratio (fatty acid β-oxidation; [3]): 2.06 ± 0.41 | Heart-to-Lungs ratio (fatty acid β-oxidation; [3]): 6.28 ± 0.29 | Biodistribution: Large Intestine (fatty acid β-oxidation; [4]): 15.54 ± 6.05 % ID | Biodistribution: Small Intestine (fatty acid β-oxidation; [4]): 16.59 ± 4.32 % ID | Biodistribution: Stomach (fatty acid β-oxidation; [4]): 1.10 ± 0.19 % ID | precipitated ^99mTc radioactivity count as share of residual tissue granular phase ([2]; control SD rat heart, 60 min, dissolved in 1 mol/L NaOH 90° C. 1 h, 50% trichloroacetic acid added): 86.0% | % aqueous fraction [2, 5]: 0.29 ± 0.06% | % organic fraction [2, 5]: 73.11±2.03% | % residual tissue pellet [2, 5]: 26.60±2.09% | % aqueous fraction [2, 6]: 0.50 ± 0.21% | % organic fraction [2, 6]: 31.38±2.48% | % residual tissue pellet [2, 6]: 68.54±3.66% and 68.12 ± 2.69% | % aqueous fraction [2, 7]: 0.53 ± 0.23% | % organic fraction [2, 7]: 33.20 ± 4.56% | % residual tissue pellet [2, 7]: 66.27±34.54% and 66.27 ± 4.54% | % aqueous fraction [2, 8]: 0.54 ± 0.24% | % organic fraction [2, 8]: 38.76 ± 5.69% | % residual tissue pellet [2, 8]: 60.70±5.71% | % aqueous fraction [2, 9]: 1.68 ± 0.44% | % organic fraction [2, 9]: 32.77 ± 3.98% | % residual tissue pellet [2, 9]: 65.55±3.54% | % aqueous fraction [2, 10]: 0.66 ± 0.21% | % organic fraction [2, 10]: 35.30 ± 4.75% | % residual tissue pellet [2, 10]: 64.04±4.90% | % aqueous fraction [2, 11]: 0.85 ± 0.30% | % organic fraction [2, 11]: 31.92 ± 3.83% | % residual tissue pellet [2, 11]: 67.23 ± 4.08%
Compound: COC(C)(C)C[N+]#[C][99Tc-5]([C]#[N+]CC(C)(C)OC)([C]#[N+]CC(C)(C)OC)([C]#[N+]CC(C)(C)OC)([C]#[N+]CC(C)(C)OC)[C]#[N+]CC(C)(C)OCCCCCSCCCCC(=O)O [^99mTc complex 80]
decrease of absolute myocardial uptake, TMZ-administered vs control SD rats (fatty acid β-oxidation; 60 min post-injection, TMZ 40 mg/kg, P<0.01): 51% | sensitivity to myocardial fatty acid β-oxidation (fatty acid β-oxidation; TMZ blocking, female SD rats): quite sensitive | reduction of residual tissue granular phase proportion, TMZ-treated vs control heart samples ([2]; 60 min after injection, P<0.01): 61%
